Laboratory results reported in ChEMBL document CHEMBL3880423, “Benzamide derivatives as histone deacetylase inhibitors with potent differentiation and anti-proliferation activity” (2009).
Calls of active or inactive are those of the source.

Key:
Type in all cases: cell-based
[1] = target: T1, Peroxisome proliferator-activated receptor gamma (Homo sapiens) (UniProt P37231); assay: Activation of PPARG (unknown origin) expressed in human U2OS cells at 1 uM in presence of 10 uM rosiglitazone incubated for 24 hrs by luciferase reporter gene assay
T1 sequence (whole entry): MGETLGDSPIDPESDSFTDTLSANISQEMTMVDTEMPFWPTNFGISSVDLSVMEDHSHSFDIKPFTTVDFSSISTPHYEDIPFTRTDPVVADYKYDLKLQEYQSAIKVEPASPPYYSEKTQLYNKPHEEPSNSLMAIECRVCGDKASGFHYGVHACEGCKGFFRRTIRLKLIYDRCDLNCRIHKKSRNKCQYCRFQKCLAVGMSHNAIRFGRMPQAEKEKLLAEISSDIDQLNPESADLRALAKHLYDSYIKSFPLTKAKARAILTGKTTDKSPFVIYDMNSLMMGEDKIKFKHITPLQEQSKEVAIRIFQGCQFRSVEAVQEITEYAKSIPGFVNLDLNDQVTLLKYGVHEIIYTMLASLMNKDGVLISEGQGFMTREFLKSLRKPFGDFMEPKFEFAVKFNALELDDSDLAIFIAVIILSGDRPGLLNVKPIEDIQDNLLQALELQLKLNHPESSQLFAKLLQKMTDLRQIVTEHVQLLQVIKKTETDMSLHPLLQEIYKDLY

[2] = target: T1, Peroxisome proliferator-activated receptor gamma (Homo sapiens); assay: Activation of PPARG (unknown origin) expressed in human U2OS cells at 1 uM incubated for 24 hrs by luciferase reporter gene assay
[3] = target: T2, Glucocorticoid receptor (Homo sapiens) (UniProt P04150); assay: Activation of glulcocorticoid receptor (unknown origin) expressed in human U2OS cells at 1 uM in presence of 0.1 uM dexamethasone incubated for 24 hrs by luciferase reporter gene assay
T2 sequence (whole entry): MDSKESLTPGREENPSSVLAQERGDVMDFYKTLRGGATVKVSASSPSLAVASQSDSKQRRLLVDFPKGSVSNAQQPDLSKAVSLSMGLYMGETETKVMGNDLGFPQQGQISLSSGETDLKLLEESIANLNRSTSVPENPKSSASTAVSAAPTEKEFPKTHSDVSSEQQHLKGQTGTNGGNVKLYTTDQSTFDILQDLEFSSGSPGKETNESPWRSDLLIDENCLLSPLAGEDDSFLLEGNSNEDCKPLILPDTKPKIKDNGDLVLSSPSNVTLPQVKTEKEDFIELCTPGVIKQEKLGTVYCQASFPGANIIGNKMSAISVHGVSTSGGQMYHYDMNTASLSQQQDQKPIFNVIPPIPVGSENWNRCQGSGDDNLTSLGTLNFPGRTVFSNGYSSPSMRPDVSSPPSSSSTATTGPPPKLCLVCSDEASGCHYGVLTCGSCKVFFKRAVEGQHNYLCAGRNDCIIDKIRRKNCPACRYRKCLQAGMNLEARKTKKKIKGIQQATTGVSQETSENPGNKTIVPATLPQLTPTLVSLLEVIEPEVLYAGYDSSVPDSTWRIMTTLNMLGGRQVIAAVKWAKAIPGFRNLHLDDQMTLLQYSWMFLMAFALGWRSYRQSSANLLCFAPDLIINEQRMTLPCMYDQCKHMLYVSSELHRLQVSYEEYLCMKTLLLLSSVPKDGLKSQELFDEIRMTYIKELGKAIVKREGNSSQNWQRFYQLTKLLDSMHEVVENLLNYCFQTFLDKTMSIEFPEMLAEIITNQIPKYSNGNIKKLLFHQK

[4] = target: T3, Estrogen receptor (Homo sapiens) (UniProt P03372); assay: Activation of ERalpha (unknown origin) expressed in human U2OS cells at 1 uM incubated for 24 hrs by luciferase reporter gene assay
T3 sequence (whole entry): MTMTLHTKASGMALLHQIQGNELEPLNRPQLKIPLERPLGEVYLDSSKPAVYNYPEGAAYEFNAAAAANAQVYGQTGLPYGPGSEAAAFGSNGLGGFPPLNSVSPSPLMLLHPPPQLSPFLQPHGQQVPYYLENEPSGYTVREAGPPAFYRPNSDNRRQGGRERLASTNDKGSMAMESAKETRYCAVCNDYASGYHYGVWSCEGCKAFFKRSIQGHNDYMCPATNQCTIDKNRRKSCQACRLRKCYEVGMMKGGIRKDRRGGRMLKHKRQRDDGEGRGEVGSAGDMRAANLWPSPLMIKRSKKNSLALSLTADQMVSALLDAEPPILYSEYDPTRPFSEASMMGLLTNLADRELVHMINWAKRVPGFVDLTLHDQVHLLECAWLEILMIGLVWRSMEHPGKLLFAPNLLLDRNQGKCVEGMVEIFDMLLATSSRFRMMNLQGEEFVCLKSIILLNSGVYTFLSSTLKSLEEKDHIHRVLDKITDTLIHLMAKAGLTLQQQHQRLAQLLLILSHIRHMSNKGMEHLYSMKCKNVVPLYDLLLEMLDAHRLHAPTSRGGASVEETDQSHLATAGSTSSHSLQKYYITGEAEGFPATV

[5] = target: T3, Estrogen receptor (Homo sapiens); assay: Activation of ERalpha (unknown origin) expressed in human U2OS cells at 1 uM in presence of 0.01 uM E2 incubated for 24 hrs by luciferase reporter gene assay
[6] = target: Estrogen receptor beta (Homo sapiens) (UniProt Q92731); assay: Activation of ERbeta (unknown origin) expressed in human U2OS cells at 1 uM incubated for 24 hrs by luciferase reporter gene assay
[7] = target: Estrogen receptor beta (Homo sapiens) (UniProt Q92731); assay: Activation of ERbeta (unknown origin) expressed in human U2OS cells at 1 uM in presence of 0.01 uM E2 incubated for 24 hrs by luciferase reporter gene assay
[8] = target: T2, Glucocorticoid receptor (Homo sapiens); assay: Activation of glulcocorticoid receptor (unknown origin) expressed in human U2OS cells at 1 uM incubated for 24 hrs by luciferase reporter gene assay
[9] = target: T2, Glucocorticoid receptor (Homo sapiens); assay: Activation of glulcocorticoid receptor (unknown origin) expressed in human U2OS cells at 0.2 uM in presence of 0.1 uM dexamethasone incubated for 24 hrs by luciferase reporter gene assay
[10] = target: T1, Peroxisome proliferator-activated receptor gamma (Homo sapiens); assay: Activation of PPARG (unknown origin) expressed in human U2OS cells at 0.2 uM incubated for 24 hrs by luciferase reporter gene assay
[11] = target: Estrogen receptor beta (Homo sapiens) (UniProt Q92731); assay: Activation of ERbeta (unknown origin) expressed in human U2OS cells at 0.2 uM in presence of 0.01 uM E2 incubated for 24 hrs by luciferase reporter gene assay
[12] = target: T2, Glucocorticoid receptor (Homo sapiens); assay: Activation of glulcocorticoid receptor (unknown origin) expressed in human U2OS cells at 0.2 uM incubated for 24 hrs by luciferase reporter gene assay
[13] = target: T3, Estrogen receptor (Homo sapiens); assay: Activation of ERalpha (unknown origin) expressed in human U2OS cells at 0.2 uM incubated for 24 hrs by luciferase reporter gene assay
[14] = target: T3, Estrogen receptor (Homo sapiens); assay: Activation of ERalpha (unknown origin) expressed in human U2OS cells at 0.2 uM in presence of 0.01 uM E2 incubated for 24 hrs by luciferase reporter gene assay
[15] = target: Estrogen receptor beta (Homo sapiens) (UniProt Q92731); assay: Activation of ERbeta (unknown origin) expressed in human U2OS cells at 0.2 uM incubated for 24 hrs by luciferase reporter gene assay
[16] = target: T1, Peroxisome proliferator-activated receptor gamma (Homo sapiens); assay: Activation of PPARG (unknown origin) expressed in human U2OS cells at 0.2 uM in presence of 10 uM rosiglitazone incubated for 24 hrs by luciferase reporter gene assay

Measured: Activity

Chain of Estrogen receptor beta (Homo sapiens) (Q92731 whole entry): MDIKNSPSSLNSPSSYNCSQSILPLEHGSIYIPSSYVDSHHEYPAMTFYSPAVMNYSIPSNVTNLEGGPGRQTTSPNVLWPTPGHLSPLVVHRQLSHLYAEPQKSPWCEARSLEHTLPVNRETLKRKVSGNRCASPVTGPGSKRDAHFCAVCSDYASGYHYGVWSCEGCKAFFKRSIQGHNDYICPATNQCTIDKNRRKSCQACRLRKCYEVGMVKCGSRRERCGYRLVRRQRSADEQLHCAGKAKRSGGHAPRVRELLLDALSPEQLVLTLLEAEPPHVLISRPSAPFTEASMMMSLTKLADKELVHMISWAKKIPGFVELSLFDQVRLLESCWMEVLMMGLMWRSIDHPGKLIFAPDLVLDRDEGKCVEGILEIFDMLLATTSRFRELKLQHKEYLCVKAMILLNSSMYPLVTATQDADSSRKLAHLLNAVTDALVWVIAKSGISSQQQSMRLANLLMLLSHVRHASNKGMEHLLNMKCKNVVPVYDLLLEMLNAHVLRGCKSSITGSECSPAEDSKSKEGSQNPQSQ

Nc1cc(F)ccc1NC(=O)c1ccc(CNC(=O)/C=C/c2cccnc2)cc1
active: [1] | [2] | [3] | [4] | [5] | [6] | [7] | [8]

Nc1ccccc1NC(=O)c1ccc(CNC(=O)OCc2cccnc2)cc1
active: [1] | [2] | [3] | [4] | [5] | [6] | [7] | [8]

CC(/C=C/C(=O)NO)=C\[C@@H](C)C(=O)c1ccc(N(C)C)cc1
active: [9] | [10] | [11] | [12] | [13] | [14] | [15] | [16]
